Experimental data taken from ChEMBL document CHEMBL4507301 (2021).

Columns and labels:
[1] = molecular target: Proto-oncogene tyrosine-protein kinase ROS (Homo sapiens) (UniProt P08922); conditions: Compound concentration 1000.0 nM
[2] = molecular target: Ephrin type-A receptor 2 (Homo sapiens) (UniProt P29317); conditions: Compound concentration 1000.0 nM
[3] = molecular target: Homeodomain-interacting protein kinase 1 (Homo sapiens) (UniProt Q86Z02); conditions: Compound concentration 1000.0 nM
[4] = molecular target: Serine/threonine-protein kinase Sgk3 (Homo sapiens) (UniProt Q96BR1); conditions: Compound concentration 1000.0 nM
[5] = molecular target: Citron Rho-interacting kinase (Homo sapiens) (UniProt O14578); conditions: Compound concentration 1000.0 nM
[6] = molecular target: Phosphorylase b kinase regulatory subunit alpha, liver isoform (Homo sapiens) (UniProt P46019); conditions: Compound concentration 1000.0 nM
[7] = molecular target: Discoidin domain-containing receptor 2 (Homo sapiens) (UniProt Q16832); conditions: Compound concentration 1000.0 nM
[8] = molecular target: Tyrosine-protein kinase receptor TYRO3 (Homo sapiens) (UniProt Q06418); conditions: Compound concentration 1000.0 nM
[9] = molecular target: Mitogen-activated protein kinase kinase kinase 12 (Homo sapiens) (UniProt Q12852); conditions: Compound concentration 1000.0 nM
[10] = molecular target: Serine/threonine-protein kinase PAK 5 (Homo sapiens) (UniProt Q9P286); conditions: Compound concentration 1000.0 nM
[11] = molecular target: Serine/threonine-protein kinase STK11 (Homo sapiens) (UniProt Q15831); conditions: Compound concentration 1000.0 nM
Sequence of Serine/threonine-protein kinase STK11 (Homo sapiens) (Q15831 whole entry): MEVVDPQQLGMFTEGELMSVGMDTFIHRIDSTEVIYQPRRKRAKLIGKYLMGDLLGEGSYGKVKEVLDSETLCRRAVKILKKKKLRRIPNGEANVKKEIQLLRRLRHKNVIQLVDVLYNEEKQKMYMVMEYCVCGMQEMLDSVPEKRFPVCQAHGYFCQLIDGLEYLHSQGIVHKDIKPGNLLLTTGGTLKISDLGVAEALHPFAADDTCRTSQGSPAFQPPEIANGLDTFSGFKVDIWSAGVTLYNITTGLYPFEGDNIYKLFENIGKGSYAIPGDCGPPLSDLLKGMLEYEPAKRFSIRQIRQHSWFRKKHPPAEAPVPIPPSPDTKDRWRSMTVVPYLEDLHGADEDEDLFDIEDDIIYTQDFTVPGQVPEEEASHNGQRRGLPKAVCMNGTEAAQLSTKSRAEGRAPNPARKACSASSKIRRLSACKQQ

[12] = tested on: Epidermal growth factor receptor (Homo sapiens), P00533 [L861Q]; conditions: Compound concentration 1000.0 nM
[13] = molecular target: Ribosomal protein S6 kinase alpha-2 (Homo sapiens) (UniProt Q15349); conditions: Compound concentration 1000.0 nM
Sequence of Ribosomal protein S6 kinase alpha-2 (Homo sapiens) (Q15349 whole entry): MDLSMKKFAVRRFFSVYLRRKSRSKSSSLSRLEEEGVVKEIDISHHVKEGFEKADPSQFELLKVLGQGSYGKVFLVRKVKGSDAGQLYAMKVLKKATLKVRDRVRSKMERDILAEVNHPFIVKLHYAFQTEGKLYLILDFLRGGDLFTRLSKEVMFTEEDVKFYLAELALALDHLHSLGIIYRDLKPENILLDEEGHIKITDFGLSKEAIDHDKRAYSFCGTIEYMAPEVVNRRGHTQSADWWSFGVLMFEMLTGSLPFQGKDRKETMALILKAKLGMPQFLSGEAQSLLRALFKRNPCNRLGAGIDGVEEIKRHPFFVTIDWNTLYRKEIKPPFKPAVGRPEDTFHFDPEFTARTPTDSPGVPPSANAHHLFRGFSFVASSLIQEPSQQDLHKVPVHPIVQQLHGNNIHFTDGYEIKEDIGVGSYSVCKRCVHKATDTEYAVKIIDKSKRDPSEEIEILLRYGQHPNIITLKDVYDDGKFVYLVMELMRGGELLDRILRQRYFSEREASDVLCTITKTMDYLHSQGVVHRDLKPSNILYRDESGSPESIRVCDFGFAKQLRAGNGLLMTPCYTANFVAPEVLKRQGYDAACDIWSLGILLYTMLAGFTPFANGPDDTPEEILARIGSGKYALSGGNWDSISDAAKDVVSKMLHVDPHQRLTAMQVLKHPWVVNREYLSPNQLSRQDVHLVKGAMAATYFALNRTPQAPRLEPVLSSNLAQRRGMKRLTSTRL

[14] = molecular target: Myosin light chain kinase family member 4 (Homo sapiens) (UniProt Q86YV6); conditions: Compound concentration 1000.0 nM
[15] = tested on: Tyrosine-protein kinase ABL1 (Homo sapiens), P00519 [Q252H]; conditions: Compound concentration 1000.0 nM
[16] = molecular target: Tyrosine-protein kinase receptor Tie-1 (Homo sapiens) (UniProt P35590); conditions: Compound concentration 1000.0 nM
[17] = molecular target: Ribosomal protein S6 kinase alpha-2 (Homo sapiens) (UniProt Q15349); conditions: Compound concentration 1000.0 nM; remark: listed apart in the source
[18] = molecular target: Cyclin-dependent kinase 17 (Homo sapiens) (UniProt Q00537); conditions: Compound concentration 1000.0 nM
[19] = molecular target: Serine/threonine-protein kinase pim-3 (Homo sapiens) (UniProt Q86V86); conditions: Compound concentration 1000.0 nM
[20] = molecular target: Megakaryocyte-associated tyrosine-protein kinase (Homo sapiens) (UniProt P42679); conditions: Compound concentration 1000.0 nM
[21] = molecular target: Serine/threonine-protein kinase 10 (Homo sapiens) (UniProt O94804); conditions: Compound concentration 1000.0 nM
Sequence of Serine/threonine-protein kinase 10 (Homo sapiens) (O94804 whole entry, looked up, canonical isoform): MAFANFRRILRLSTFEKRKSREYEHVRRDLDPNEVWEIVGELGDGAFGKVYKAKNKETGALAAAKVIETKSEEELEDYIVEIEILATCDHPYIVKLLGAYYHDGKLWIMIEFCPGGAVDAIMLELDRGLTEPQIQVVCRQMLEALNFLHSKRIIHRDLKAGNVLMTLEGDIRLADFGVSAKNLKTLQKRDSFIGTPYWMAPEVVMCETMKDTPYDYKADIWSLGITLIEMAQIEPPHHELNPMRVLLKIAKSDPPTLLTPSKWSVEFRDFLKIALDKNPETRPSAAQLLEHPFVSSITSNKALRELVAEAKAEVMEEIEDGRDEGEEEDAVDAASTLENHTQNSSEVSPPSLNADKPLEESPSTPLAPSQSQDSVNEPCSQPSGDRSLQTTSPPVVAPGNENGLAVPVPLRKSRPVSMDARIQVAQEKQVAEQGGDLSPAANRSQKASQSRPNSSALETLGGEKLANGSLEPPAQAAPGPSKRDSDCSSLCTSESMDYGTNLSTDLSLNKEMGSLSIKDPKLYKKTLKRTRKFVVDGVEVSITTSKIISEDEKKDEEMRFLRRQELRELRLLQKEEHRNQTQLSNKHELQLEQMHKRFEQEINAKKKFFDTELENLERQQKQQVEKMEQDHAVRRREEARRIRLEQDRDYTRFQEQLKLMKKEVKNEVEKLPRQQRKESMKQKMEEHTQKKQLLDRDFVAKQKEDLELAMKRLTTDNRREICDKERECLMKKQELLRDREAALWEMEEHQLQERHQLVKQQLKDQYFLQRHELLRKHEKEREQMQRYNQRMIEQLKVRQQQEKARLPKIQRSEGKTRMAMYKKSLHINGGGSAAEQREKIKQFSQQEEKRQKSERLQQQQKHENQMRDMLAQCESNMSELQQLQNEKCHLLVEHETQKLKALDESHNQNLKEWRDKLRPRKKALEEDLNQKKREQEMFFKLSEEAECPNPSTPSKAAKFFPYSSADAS

[22] = molecular target: Casein kinase I isoform epsilon (Homo sapiens) (UniProt P49674); conditions: Compound concentration 1000.0 nM
[23] = molecular target: Serine/threonine-protein kinase NIM1 (Homo sapiens) (UniProt Q8IY84); conditions: Compound concentration 1000.0 nM
[24] = molecular target: Protein-tyrosine kinase 2-beta (Homo sapiens) (UniProt Q14289); conditions: Compound concentration 1000.0 nM
[25] = molecular target: Interleukin-1 receptor-associated kinase 4 (Homo sapiens) (UniProt Q9NWZ3); conditions: Compound concentration 1000.0 nM
[26] = molecular target: Dual specificity tyrosine-phosphorylation-regulated kinase 1A (Homo sapiens) (UniProt Q13627); conditions: Compound concentration 1000.0 nM
[27] = molecular target: Receptor-interacting serine/threonine-protein kinase 1 (Homo sapiens) (UniProt Q13546); conditions: Compound concentration 1000.0 nM
Sequence of Receptor-interacting serine/threonine-protein kinase 1 (Homo sapiens) (Q13546 whole entry): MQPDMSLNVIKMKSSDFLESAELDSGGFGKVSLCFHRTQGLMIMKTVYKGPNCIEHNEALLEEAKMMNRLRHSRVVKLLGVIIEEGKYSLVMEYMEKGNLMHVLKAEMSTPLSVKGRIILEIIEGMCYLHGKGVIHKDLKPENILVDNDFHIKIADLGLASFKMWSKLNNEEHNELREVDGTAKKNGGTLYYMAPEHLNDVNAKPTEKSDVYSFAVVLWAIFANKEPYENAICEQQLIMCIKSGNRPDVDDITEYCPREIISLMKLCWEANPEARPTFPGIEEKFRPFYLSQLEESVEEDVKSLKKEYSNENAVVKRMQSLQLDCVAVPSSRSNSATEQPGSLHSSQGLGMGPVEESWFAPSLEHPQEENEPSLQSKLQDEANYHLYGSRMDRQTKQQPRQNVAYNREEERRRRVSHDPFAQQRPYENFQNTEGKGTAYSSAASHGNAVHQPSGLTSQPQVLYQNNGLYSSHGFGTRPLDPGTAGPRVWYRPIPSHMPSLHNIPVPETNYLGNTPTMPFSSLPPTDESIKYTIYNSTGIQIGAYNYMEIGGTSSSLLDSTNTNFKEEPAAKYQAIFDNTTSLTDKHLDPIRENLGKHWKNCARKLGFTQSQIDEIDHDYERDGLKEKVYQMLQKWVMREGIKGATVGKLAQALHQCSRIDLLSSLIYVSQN

[28] = molecular target: Serine/threonine-protein kinase B-raf (Homo sapiens) (UniProt P15056); conditions: Compound concentration 1000.0 nM
[29] = tested on: Phosphatidylinositol 4,5-bisphosphate 3-kinase catalytic subunit alpha isoform (Homo sapiens), P42336 [C420R]; conditions: Compound concentration 1000.0 nM
[30] = molecular target: Homeodomain-interacting protein kinase 3 (Homo sapiens) (UniProt Q9H422); conditions: Compound concentration 1000.0 nM
Sequence of Homeodomain-interacting protein kinase 3 (Homo sapiens) (Q9H422 whole entry, looked up): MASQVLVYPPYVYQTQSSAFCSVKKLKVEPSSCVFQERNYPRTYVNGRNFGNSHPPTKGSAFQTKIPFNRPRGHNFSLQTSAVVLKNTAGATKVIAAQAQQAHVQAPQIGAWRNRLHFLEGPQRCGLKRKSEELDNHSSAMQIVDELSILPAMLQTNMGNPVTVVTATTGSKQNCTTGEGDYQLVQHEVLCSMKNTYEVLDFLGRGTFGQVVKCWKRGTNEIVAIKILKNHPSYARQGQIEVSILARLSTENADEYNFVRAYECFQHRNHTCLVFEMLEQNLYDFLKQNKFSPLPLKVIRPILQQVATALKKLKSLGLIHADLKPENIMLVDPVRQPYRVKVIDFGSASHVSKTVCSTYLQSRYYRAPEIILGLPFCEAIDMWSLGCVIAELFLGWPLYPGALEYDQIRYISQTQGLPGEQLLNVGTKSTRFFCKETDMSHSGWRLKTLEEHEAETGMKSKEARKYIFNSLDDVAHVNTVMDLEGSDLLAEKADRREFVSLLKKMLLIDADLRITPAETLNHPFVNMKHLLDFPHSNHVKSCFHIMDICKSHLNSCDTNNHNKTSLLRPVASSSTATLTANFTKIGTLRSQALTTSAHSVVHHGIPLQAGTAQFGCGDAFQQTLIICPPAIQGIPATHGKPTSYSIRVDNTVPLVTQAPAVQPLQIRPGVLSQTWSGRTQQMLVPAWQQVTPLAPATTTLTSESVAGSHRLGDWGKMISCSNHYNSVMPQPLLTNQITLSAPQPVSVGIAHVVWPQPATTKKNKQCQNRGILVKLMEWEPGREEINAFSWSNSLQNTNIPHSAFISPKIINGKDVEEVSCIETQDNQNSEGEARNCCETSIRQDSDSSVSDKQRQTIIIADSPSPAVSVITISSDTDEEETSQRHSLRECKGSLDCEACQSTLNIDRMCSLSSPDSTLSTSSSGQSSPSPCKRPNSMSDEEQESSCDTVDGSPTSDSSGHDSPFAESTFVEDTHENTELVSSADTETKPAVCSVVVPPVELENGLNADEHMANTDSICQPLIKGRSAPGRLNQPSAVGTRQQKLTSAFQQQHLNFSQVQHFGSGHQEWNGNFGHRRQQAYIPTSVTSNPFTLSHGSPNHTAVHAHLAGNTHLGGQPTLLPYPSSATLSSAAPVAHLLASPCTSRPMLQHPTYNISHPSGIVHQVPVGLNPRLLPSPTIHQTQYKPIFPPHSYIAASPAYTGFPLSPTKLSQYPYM

[31] = molecular target: Serine/threonine-protein kinase VRK2 (Homo sapiens) (UniProt Q86Y07); conditions: Compound concentration 1000.0 nM
[32] = molecular target: Casein kinase II subunit alpha (Homo sapiens) (UniProt P68400); conditions: Compound concentration 1000.0 nM
[33] = molecular target: Phosphatidylinositol 4-phosphate 5-kinase type-1 alpha (Homo sapiens) (UniProt Q99755); conditions: Compound concentration 1000.0 nM
[34] = tested on: Hepatocyte growth factor receptor (Homo sapiens), P08581 [Y1235D]; conditions: Compound concentration 1000.0 nM
[35] = tested on: Proto-oncogene tyrosine-protein kinase receptor Ret (Homo sapiens), P07949 [V804L]; conditions: Compound concentration 1000.0 nM
[36] = molecular target: Serine/threonine-protein kinase 25 (Homo sapiens) (UniProt O00506); conditions: Compound concentration 1000.0 nM
[37] = molecular target: Mitogen-activated protein kinase 11 (Homo sapiens) (UniProt Q15759); conditions: Compound concentration 1000.0 nM
[38] = molecular target: Cyclin-dependent kinase 4 (Homo sapiens) (UniProt P11802); conditions: Compound concentration 1000.0 nM
Sequence of Cyclin-dependent kinase 4 (Homo sapiens) (P11802 whole entry): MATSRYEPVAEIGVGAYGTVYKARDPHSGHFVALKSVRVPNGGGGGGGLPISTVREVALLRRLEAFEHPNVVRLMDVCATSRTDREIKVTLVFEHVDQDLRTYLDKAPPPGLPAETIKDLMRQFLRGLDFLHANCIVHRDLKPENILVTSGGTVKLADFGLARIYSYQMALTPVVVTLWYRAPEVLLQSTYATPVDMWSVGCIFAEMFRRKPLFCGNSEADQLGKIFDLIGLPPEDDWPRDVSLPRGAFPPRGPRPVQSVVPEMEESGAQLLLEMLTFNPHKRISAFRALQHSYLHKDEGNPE

[39] = molecular target: Muscarinic acetylcholine receptor M5 (Homo sapiens) (UniProt P08912); conditions: Compound concentration 10.0 uM
Sequence of Muscarinic acetylcholine receptor M5 (Homo sapiens) (P08912 whole entry): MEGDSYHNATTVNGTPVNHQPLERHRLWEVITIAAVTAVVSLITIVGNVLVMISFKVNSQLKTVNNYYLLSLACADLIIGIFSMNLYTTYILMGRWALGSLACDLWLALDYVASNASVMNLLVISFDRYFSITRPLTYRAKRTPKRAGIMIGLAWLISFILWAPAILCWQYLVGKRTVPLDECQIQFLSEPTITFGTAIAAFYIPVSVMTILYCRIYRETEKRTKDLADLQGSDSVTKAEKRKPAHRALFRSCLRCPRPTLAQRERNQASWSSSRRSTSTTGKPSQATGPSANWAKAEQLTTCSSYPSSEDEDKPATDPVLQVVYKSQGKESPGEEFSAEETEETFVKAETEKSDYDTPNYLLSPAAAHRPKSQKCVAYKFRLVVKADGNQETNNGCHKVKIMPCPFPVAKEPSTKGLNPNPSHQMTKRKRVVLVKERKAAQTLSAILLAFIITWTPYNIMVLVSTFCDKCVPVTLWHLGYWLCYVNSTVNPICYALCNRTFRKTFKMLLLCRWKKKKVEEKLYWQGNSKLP

[40] = tested on: Fibroblast growth factor receptor 3 (Homo sapiens), P22607 [G697C]; conditions: Compound concentration 1000.0 nM
[41] = molecular target: Transient receptor potential cation channel subfamily M member 6 (Homo sapiens) (UniProt Q9BX84); conditions: Compound concentration 1000.0 nM
[42] = molecular target: Dual specificity testis-specific protein kinase 1 (Homo sapiens) (UniProt Q15569); conditions: Compound concentration 1000.0 nM
[43] = molecular target: Homeodomain-interacting protein kinase 4 (Homo sapiens) (UniProt Q8NE63); conditions: Compound concentration 1000.0 nM
[44] = molecular target: Mitogen-activated protein kinase kinase kinase kinase 2 (Homo sapiens) (UniProt Q12851); conditions: Compound concentration 1000.0 nM
[45] = molecular target: Phosphatidylinositol 3-kinase C2 domain-containing subunit gamma (Homo sapiens) (UniProt O75747); conditions: Compound concentration 1000.0 nM

Compound: C[C@H](c1cccc(C#N)c1)n1cc(Cl)cc(C(N)=O)c1=N [(R)-9s]
- residual activity [1]: 100%
- residual activity [2]: 89%
- residual activity [3]: 83%
- residual activity [4]: 80%
- residual activity [5]: 96%
- residual activity [6]: 100%
- residual activity [7]: 100%
- residual activity [8]: 33%
- residual activity [9]: 100%
- residual activity [10]: 100%
- residual activity [11]: 96%
- residual activity [12]: 100%
- residual activity [13]: 97%
- residual activity [14]: 100%
- residual activity [15]: 100%
- residual activity [16]: 100%
- residual activity [17]: 62%
- residual activity [18]: 91%
- residual activity [19]: 100%
- residual activity [20]: 100%
- residual activity [21]: 100%
- residual activity [22]: 99%
- residual activity [23]: 84%
- residual activity [24]: 100%
- residual activity [25]: 82%
- residual activity [26]: 65%
- residual activity [27]: 100%
- residual activity [28]: 100%
- residual activity [29]: 100%
- residual activity [30]: 81%
- residual activity [31]: 79%
- residual activity [32]: 67%
- residual activity [33]: 100%
- residual activity [34]: 100%
- residual activity [35]: 87%
- residual activity [36]: 100%
- residual activity [37]: 100%
- residual activity [38]: 88%
- inhibition [39]: 3.44%
- residual activity [40]: 100%
- residual activity [41]: 83%
- residual activity [42]: 86%
- residual activity [43]: 100%
- residual activity [44]: 99%
- residual activity [45]: 88%

Compound: C[C@@H](c1cccc(C#N)c1)n1cc(Cl)cc(C(N)=O)c1=N [(S)-9s]
- residual activity [1]: 100%
- residual activity [2]: 88%
- residual activity [3]: 79%
- residual activity [4]: 77%
- residual activity [5]: 100%
- residual activity [6]: 100%
- residual activity [7]: 88%
- residual activity [8]: 68%
- residual activity [9]: 100%
- residual activity [10]: 97%
- residual activity [11]: 74%
- residual activity [12]: 100%
- residual activity [13]: 93%
- residual activity [14]: 100%
- residual activity [15]: 68%
- residual activity [16]: 87%
- residual activity [17]: 100%
- residual activity [18]: 84%
- residual activity [19]: 100%
- residual activity [20]: 100%
- residual activity [21]: 86%
- residual activity [22]: 100%
- residual activity [23]: 97%
- residual activity [24]: 87%
- residual activity [25]: 87%
- residual activity [26]: 75%
- residual activity [27]: 100%
- residual activity [28]: 96%
- residual activity [29]: 100%
- residual activity [30]: 70%
- residual activity [31]: 85%
- residual activity [32]: 72%
- residual activity [33]: 100%
- residual activity [34]: 100%
- residual activity [35]: 86%
- residual activity [36]: 100%
- residual activity [37]: 93%
- residual activity [38]: 99%
- inhibition [39]: -1.05%
- residual activity [40]: 79%
- residual activity [41]: 71%
- residual activity [42]: 74%
- residual activity [43]: 100%
- residual activity [44]: 90%
- residual activity [45]: 84%
